Series [1] is described as follows: Behavioral studies in the dog. As to conditions: subcutaneous dose of 2 mg./kg. Type of series: in vivo. The method, then: The normal parenteral dosage of the compounds of this invention in adult humans is about 0.25 to 16 mg. three to four times a day.
Series [2] concerns Straub Tail induced by oxymorphone. The series can be described thus: Oxymorphone Straub Tail antagonism (antagonist activity). It is filed as in vivo, mouse. The following applies: for ED50: sc, mouse, subcutaneous, hydrochloride salts of IX and X, oxymorphone 2 mg./kg. s.c. As for the experimental part:
^2 Antagonism of Straub Tail induced by oxymorphone (2 mg./kg. s.c.)

Series [3] has as its system phenylquinone induced writhing. Description: Mouse phenylquinone writhing (analgesic activity). The following applies: for analgesic potency relative to pentazocine: in words, compared with pentazocine; for ED50: sc, mouse, subcutaneous, hydrochloride salts of IX and X, 50 percent reduction in number of writhings. Type of series: in vivo. The text has this: ^1 A 50 percent reduction in number of phenylquinone induced writhing
[Siegmumd, E.A., et al., Proc. Soc. Biol. & Med 95, p. 729 (1957)].
(In general: In writhing tests, fewer writhes than in controls are read as antinociception.)

The test system of series [4] is analgesic effect induced by morphine. The series can be described thus: Morphine antagonist rat tail flick (antagonist activity). As to conditions: for ED50: Rattus norvegicus, sc, read-out: ED50 Antagonist Activity, Morphine Antagonist Rat Tail Flick.
For series [5] the following is noted: Chemical Abstracts 63, 18050-18051 (Belgian Pat. No. 644,679); cited from earlier work.
For series [6] the following is noted: Chemical Abstracts 63, 18050-18051 (Belgian Pat. No. 644,679); cited from earlier work. The source holds these as a separate data set.
For series [7] the following is noted: monkey; J. Med. Chem. 12, 845-847 (1969); cited from earlier work.
For series [8] the following is noted: J. Med. Chem. 12, 845-847 (1969); cited from earlier work.

Molecules are shown by their SMILES.

As for `Oc1ccc2c(c1)[C@]13CCN(CC4CC4)[C@H](C2)[C@@H]1CCc1ccccc13` (relative stereo) [IX, 3-Hydroxy-17-cyclopropylmethyl-5,6-benzomorphinan], the “side effects in behavioral studies” value in series [1] is “free of side effects”. Moreover, the results for the ED50 in series [2], in series [3] and in series [4] were approximately 40 mg/kg, approximately 4.5 mg/kg and 2.3 mg/kg, respectively. Further, the “antagonist activity (in words)” value in series [2] (test not given) is recorded as “little antagonist activity”. Also, the “analgesic potency relative to pentazocine” value in series [3] is reported as “about the same analgesic potency as pentazocine”.
Regarding `Oc1ccc2c(c1)[C@]13CCN(CC4CCC4)[C@H](C2)[C@@H]1CCc1ccccc13` (relative stereo) [X, 3-Hydroxy-17-cyclobutylmethyl-5,6-benzomorphinan], the “side effects in behavioral studies” value in series [1] is listed as “free of side effects”. In addition, the 50% effective dose (ED50) in series [2] was more than 40 mg/kg. Moreover, in series [3], the “analgesic potency relative to pentazocine” value is listed as “about the same analgesic potency as pentazocine” and the ED50 was approximately 4.5 mg/kg. Further, in series [4] (rat, relative to pentazocine), the “times more active as an antagonist in the rat than pentazocine” value was “approximately 5 times”.
For `Oc1ccc2c(c1)[C@@]13CCCC[C@H]1[C@@H](C2)N(CC1CCC1)CC3` (stereo in doubt) [N-cyclobutylmethyl-3-hydroxymorphinan], in series [5], the “antagonism to meperidine (in words)” value is listed as “antagonists to meperidine”. Moreover, in series [6], the “analgesic activity (in words)” value is “analgesics”.
`NC(=O)N1CCC2CC1Cc1ccc(O)cc12` (centres unmarked) [3-carboxamido-1,2,3,4,5,6-hexahydro-2,6-methano-3-benzazocin-8-ol]: the “physical dependence capacity (in words)” value in series [7] is listed as “unusual freedom from physical dependence capacity in the monkey”. Besides, in series [8], the “analgetic effect, oral (in words)” value is reported as “orally effective analgetic”.
Regarding `Oc1ccc2c(c1)[C@@]13CCCC[C@H]1[C@@H](C2)N(CC1CC1)CC3` [N-cyclopropylmethyl-3-hydroxymorphinan], the “antagonism to meperidine (in words)” value in series [5] was “antagonists to meperidine”. In addition, the “analgesic activity (in words)” value in series [6] was “analgesics”.
On to `CC(C)=CCN1CCC2(C)c3cc(O)ccc3CC1C2C` (centres unmarked) [Pentazocine, reference compound], for which the ED50 in series [2] came out at 12 mg/kg; in series [3], 3.7 mg/kg; in series [4] it was 12.2 mg/kg.

Usually ED50 stands for the dose that gives a 50% effect, or the effect in half of the subjects.

The record behind these values is patent US3931188A, “3-Hydroxy-5,6-benzomorphinan derivatives” (Bristol-Myers Company, priority 1974, dated 1976).
